Laboratory results as given in US4336400A, “3-(Hydroxy or hydroxymethyl)-4-hydroxy-alpha(aminomethyl)benzyl alcohols and methods of use” (Sterling Drug Inc., priority 1978, dated 1982).
“And” between values parts separate entries of the source, which are not always exact repeats. Equal values may be shown once. Where a name gives a salt, the structure may show the parent alone.

How the values were obtained:
[1] = system: guinea pig bronchioles constricted by carbachol; experiment: Bronchodilator Test Method II: in vitro, perfused guinea pig lung, bronchioles constricted by carbachol; details: for Bronchodilator Action, Duration (min) Mean: dose mcg(base) given
Experimental: Bronchodilator activity was tested in anesthetized dogs (Test Method I) and in vitro on the perfused guinea pig lung (Test Method II), using the following pharmacological test procedures:
In this method bronchodilator activity in vitro was determined by testing the effect of graded doses of the test compounds on guinea pig bronchioles constricted by carbachol, using the technique reported by Sollman and von Oettingen, Proc. Soc. Exp. Biol. Med., 25, 692 (1928) as modified by Tainter, Pedden, and James, J. Pharm. Exp. Ther., 51, 371 (1934) and by Luduena, von Euler, Tuller, and Lands, Arch. Intern. Pharmacol., III, 392 (1957).

[2] = Solubility, pH of solution and precipitation; assay type: physicochemical; details: for precipitation when the pH was adjusted to 7.0 with N/10 sodium hydroxide: 1 percent aqueous solution, pH 7.0; for precipitation on dilution of a 1 percent dimethyl sulfoxide solution with three volumes of water: 1 percent solution in dimethyl sulfoxide; for precipitation on dilution of a 1 percent glycerol formal solution with three volumes of water: 1 percent solution in glycerol formal
diastolic blood pressure = experiment: Effect on diastolic blood pressure in the anesthetized dog, intravenous; assay type: in vivo; details: i.v., dose (salt) mcg/kg
Experimental: Injections were repeated at 20-30 minutes.
Cardiovascular Studies The effect of a rapid intravenous injection on the heart rate was conducted in anesthetized dogs under normal respiration. A few open-chest dogs were also tested. Increase in heart rate was measured by using an electrocardiograph attached to the dog. Readings were taken every 0.5-1 minutes for the first 10 minutes and every 2-5 minutes thereafter until recovery. In some cases, several doses and more than one compound were tested alternately in the same dog. The blood pressure effect was simultaneously recorded.

normal airway pressure = experiment: Control bronchoconstriction in anesthetized dog; assay type: in vivo; details: i.v., carbachol 4 to 6 micrograms per kilogram, histamine diphosphate 35 to 45 micrograms per kilogram, majority of test animals
Experimental: Test Method I: Male and female dogs weighing 9-18 kg. each were anesthetized with pentobarbital sodium (30 mg./kg. i.v.). Each animal, with thorax opened at the mid-sternum, was maintained under artificial ventilation using a constant volume pump (250 ml./stroke; ten to twelve strokes per minute) attached to the tracheal cannula. The flow of air was controlled by a glass or plastic valve which closed and opened respectively on inflow and outflow of the air to and from the tracheal cannula. Bronchoconstriction and/or bronchodilatation were measured from changes in the basal airway pressure reflected by a transducer attached to the sidearm of the cannula relayed to a polygraph.
Control bronchoconstrictions were induced by intravenous injections of carbachol (choline chloride carbamate) in doses ranging from 4 to 6 micrograms per kilogram or histamine diphosphate in doses ranging from 35 to 45 micrograms per kilogram.

| Compound | ED50 ([1]; Doryl conc. 1:5 million) | Bronchodilator Action, Duration (min) Mean ([1]; Doryl conc. 1:5 million) | other results |
| --- | --- | --- | --- |
| CCCC(=O)Oc1ccc(C(O)CNC(C)(C)C)cc1OC(=O)CCC.Cl (stereo not drawn) [Example 1, 3,4-bis(butyryloxy)-alpha-(tert-butylaminomethyl)-benzyl alcohol hydrochloride] | 0.23 mcg(base) | 9 ± 1.0 min | precipitation when the pH was adjusted to 7.0 with N/10 sodium hydroxide [2]: a precipitate formed |
| CC(C)C(=O)Oc1ccc(C(O)CNC(C)(C)C)cc1OC(=O)C(C)C.Cl (stereo not drawn) [Example 2, 3,4-bis(isobutyryloxy)-alpha-(tert-butylaminomethyl)-benzyl alcohol hydrochloride] | 0.28 mcg(base) | 9 ± 1.1 min | – |
| CC(C)CC(=O)Oc1ccc(C(O)CNC(C)(C)C)cc1OC(=O)CC(C)C.Cl (stereo not drawn) [Example 3, 3,4-bis(isovaleryloxy)-alpha-(tert-butylaminomethyl)benzyl alcohol hydrochloride] | 0.6 mcg(base) | 18 ± 4 min | precipitation when the pH was adjusted to 7.0 with N/10 sodium hydroxide [2]: a precipitate formed |
| CCC(C)C(=O)Oc1ccc(C(O)CNC(C)(C)C)cc1OC(=O)C(C)CC.Cl (stereo not drawn) [Example 4, 3,4-bis(2-methylbutanoyloxy)-alpha-(tert-butylaminomethyl)benzyl alcohol hydrochloride] | 0.45 mcg(base) | 20 ± 3 min | – |
| CC(C)(C)NCC(O)c1ccc(OC(=O)C(C)(C)C)c(OC(=O)C(C)(C)C)c1.Cl (stereo not drawn) [Example 5, 3,4-bis(pivalyloxy)-alpha-(tert-butylaminomethyl)-benzyl alcohol hydrochloride] | 0.94 mcg(base) | 18 ± 4.2 min | – |
| CCC(C)CC(=O)Oc1ccc(C(O)CNC(C)(C)C)cc1OC(=O)CC(C)CC.Cl (stereo not drawn) [Example 6, 3,4-bis(3-methylpentanoyloxy)-alpha-(tert-butylaminomethyl)benzyl alcohol hydrochloride] | 1.3 mcg(base) | 43 ± 3.7 min | – |
| CC(C)(C)CC(=O)Oc1ccc(C(O)CNC(C)(C)C)cc1OC(=O)CC(C)(C)C.Cl (stereo not drawn) [Example 7, 3,4-bis(3,3-dimethylbutanoyloxy)-alpha-(tert-butylaminomethyl)benzyl alcohol hydrochloride] | 23 mcg(base) | 85 ± 17 min | – |
| CC(C)(C)NCC(O)c1ccc(OC(=O)C2(C)CC2)c(OC(=O)C2(C)CC2)c1.Cl (stereo not drawn) [Example 13, 3,4-bis(1-methylcyclopropanecarbonyloxy)-alpha-(tert-butylaminomethyl)benzyl alcohol hydrochloride] | 0.45 mcg(base) | 15 ± 1.7 min | – |
| CC(C)(C)NCC(O)c1ccc(OC(=O)C2CCCCC2)c(OC(=O)C2CCCCC2)c1.Cl (stereo not drawn) [Example 15, 3,4-bis(cyclohexanecarbonyloxy)-alpha-(tert-butylaminomethyl)benzyl alcohol hydrochloride] | 1.3 mcg(base) | 53 ± 7 min | precipitation on dilution of a 1 percent dimethyl sulfoxide solution with three volumes of water [2]: no precipitate formed |
| CC(C)(C)NCC(O)c1ccc(OC(=O)c2ccccc2)c(OC(=O)c2ccccc2)c1.Cl (stereo not drawn) [Example 29, 3,4-bis(benzoyloxy)-alpha-(tert-butylaminomethyl)-benzyl alcohol hydrochloride] | 1.1 mcg(base) | 34 ± 6.4 min | precipitation on dilution of a 1 percent dimethyl sulfoxide solution with three volumes of water [2]: no precipitate formed; precipitation on dilution of a 1 percent glycerol formal solution with three volumes of water [2]: no precipitate formed |
| Cc1ccc(C(=O)Oc2ccc(C(O)CNC(C)(C)C)cc2OC(=O)c2ccc(C)cc2)cc1 (stereo not drawn) [Example 30, 3,4-bis(p-toluyloxy)-alpha-(tert-butylaminomethyl)-benzyl alcohol methanesulfonate] | – | – | Mean Decrease in Diastolic Blood Pressure in % (diastolic blood pressure): 2% and 11% and 11.5% |
| COc1ccc(C(=O)Oc2ccc(C(O)CNC(C)(C)C)cc2OC(=O)c2ccc(OC)cc2)cc1.Cl (stereo not drawn) [Example 33, 3,4-bis(p-anisoyloxy)-alpha-(tert-butylaminomethyl)-benzyl alcohol hydrochloride] | 6.9 mcg(base) | 32 ± 5 min | precipitation on dilution of a 1 percent dimethyl sulfoxide solution with three volumes of water [2]: no precipitate formed; precipitation on dilution of a 1 percent glycerol formal solution with three volumes of water [2]: no precipitate formed |
| CC(C)CC(=O)Oc1cc(C(O)CNC(C)(C)C)ccc1OC(=O)C(C)(C)C.Cl (stereo not drawn) [Example 71, 3-(isovaleryloxy)-4-(pivalyloxy)-alpha-(tert-butylaminomethyl)benzyl alcohol hydrochloride] | 0.63 mcg(base) | 26 min | – |
| CCC(NC1CCCC1)C(O)c1ccc(OC(=O)CC(C)C)c(OC(=O)CC(C)C)c1.Cl (stereo not drawn) [Example 138, 3,4-bis(isovaleryloxy)-alpha-[1-(cyclopentylamino)propyl]benzyl alcohol hydrochloride] | 0.46 mcg(base) | 25.4 ± 3.5 min | – |
| COc1ccc(C(=O)Oc2ccc(C(O)CNC(C)(C)C)cc2OC(=O)c2ccccc2)cc1.Cl (stereo not drawn) [Example 143, 3-benzoyloxy-4-(p-anisoyloxy)-alpha-(tert-butylaminomethyl)benzyl alcohol hydrochloride] | – | – | ED50 ([1]; Doryl conc. 1:10 million): 1.53 mcg(base); Bronchodilator Action, Duration (min) Mean ([1]; Doryl conc. 1:10 million): 29.2 ± 10.2 min |
| CCC(NC(C)(C)C)C(O)c1ccc(OC(=O)c2ccc(C)cc2)c(OC(=O)c2ccc(C)cc2)c1 (stereo not drawn) [Example 144, 3,4-bis(p-toluyloxy)-alpha-[1-(tert-butylamino)-propyl]benzyl alcohol hydrochloride] | – | 83 ± 26.8 min | – |
| COc1ccc(C(=O)Oc2ccc(C(O)CNC(C)(C)C)cc2COC(C)=O)cc1 (stereo not drawn) [Example 151, 3-(acetoxymethyl)-4-(p-anisoyloxy)-alpha-(tert-butylaminomethyl)benzyl alcohol methanesulfonate] | – | – | Mean Decrease in Diastolic Blood Pressure in % (diastolic blood pressure): 10% |
| CC(C)(C)NCC(O)c1ccc(O)c(O)c1 (stereo not drawn) [Ref. Cpd. I, 3,4-Dihydroxy-alpha-(tert-butylaminomethyl)benzyl alcohol, reference compound] | 0.18 mcg(base) | 5 ± 1.4 min | – |
| CC(C)NCC(O)c1ccc(O)c(O)c1 (stereo not drawn) [Ref. Cpd. II, 3,4-Dihydroxy-alpha-(isopropylaminomethyl)benzyl alcohol, reference compound] | – | 5 min | – |
| C[N+](C)(C)CCOC(N)=O [carbachol, choline chloride carbamate] | – | – | increase in the normal airway pressure or amplitude (normal airway pressure): 100-200% |
| NCCc1c[nH]cn1 [histamine diphosphate] | – | – | increase in the normal airway pressure or amplitude (normal airway pressure): 100-200% |
